Data as given in article PMC8376405 (Protein Science : A Publication of the Protein Society, 2021).

T1: CtTrpAB (Chlamydia trachomatis, UniProt O84172)
T1 sequence (O84172 1-392): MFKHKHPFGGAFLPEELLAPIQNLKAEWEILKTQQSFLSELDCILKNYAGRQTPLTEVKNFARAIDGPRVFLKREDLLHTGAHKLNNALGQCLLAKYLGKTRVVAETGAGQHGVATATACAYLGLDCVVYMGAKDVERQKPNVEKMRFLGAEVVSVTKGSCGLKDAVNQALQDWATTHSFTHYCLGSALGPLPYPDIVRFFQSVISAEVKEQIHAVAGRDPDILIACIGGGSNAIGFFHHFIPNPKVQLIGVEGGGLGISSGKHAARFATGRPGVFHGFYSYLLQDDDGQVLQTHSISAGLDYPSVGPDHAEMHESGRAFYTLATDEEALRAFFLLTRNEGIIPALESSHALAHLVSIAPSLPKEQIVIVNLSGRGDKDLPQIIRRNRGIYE
T1 sequence (O84173 1-253 partner): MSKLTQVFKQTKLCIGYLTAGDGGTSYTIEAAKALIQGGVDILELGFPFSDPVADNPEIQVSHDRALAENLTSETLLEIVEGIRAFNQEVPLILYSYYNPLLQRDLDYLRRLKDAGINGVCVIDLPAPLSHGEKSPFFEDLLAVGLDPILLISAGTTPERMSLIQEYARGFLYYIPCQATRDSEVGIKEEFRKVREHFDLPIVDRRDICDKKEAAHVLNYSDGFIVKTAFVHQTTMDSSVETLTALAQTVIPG

B1: CtTrpAB (Chlamydia trachomatis D/UW-3/CX) (protein)
chain: T1 sequence (O84172 1-392)

How the values were obtained:
[1] = target: T1, CtTrpAB; test: X-ray crystal structure, […] Å; type: binding; conditions: covalent adduct to beta Lys84 in TrpB; sulfate in the serine site
[2] = substrate: c1ccc2[nH]ccc2c1; test: purified protein; type: biochemical, Chlamydia trachomatis; conditions: L-Ser co-substrate, 40 uM PLP, 100 mM KCl, pH 8.0, room temperature

Molecule | X-ray crystal structure, 2.42 Å [1] | kcat [2]
Cc1ncc(COP(=O)(O)O)c(C=O)c1O [pyridoxal 5′-phosphate] | The CtTrpB active site, marked by the PLP adduct to βLys84 | –
B1 | – | 0.352 s⁻¹
